Measured values published in patent US11420961B2, “Heterocyclic compounds” (Hoffmann-La Roche Inc., priority 2017, dated 2022).

molecular target: T1, MAGL (recombinant wild-type) (Homo sapiens, UniProt Q99685); assay: 4-NPA assay: MAGL inhibitory activity by hydrolysis of 4-nitrophenylacetate, absorbance at 405 nm; type: biochemical; settings: 4-NPA assay (values without footnote [a])
T1 sequence (Q99685 1-303): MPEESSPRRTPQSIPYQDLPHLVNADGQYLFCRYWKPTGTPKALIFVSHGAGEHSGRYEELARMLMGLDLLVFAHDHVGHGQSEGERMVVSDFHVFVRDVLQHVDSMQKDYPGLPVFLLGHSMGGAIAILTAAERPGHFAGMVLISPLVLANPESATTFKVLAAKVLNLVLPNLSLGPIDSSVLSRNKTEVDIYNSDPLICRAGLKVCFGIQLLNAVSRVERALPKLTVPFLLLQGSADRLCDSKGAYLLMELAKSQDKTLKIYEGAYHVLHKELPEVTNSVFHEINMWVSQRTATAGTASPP
Procedure: Compounds were profiled for MAGL inhibitory activity by measuring the enzymatic activity of MAGL by following the hydrolysis of 4-nitorphenylacetate resulting in 4-nitrophenol, which absorbs at 405-412 nm (G. G. Muccioli, G. Labar, D M. Lambert, Chem. Bio. Chem. 2008, 9, 2704-2710). This assay is hereinafter abbreviated “4-NPA assay”.
The 4-NPA assay was carried out in 384 well assay plates (black with clear bottom, non-binding surface treated, Corning Ref. 3655) in a total volume of 40 μL. Compound dilutions were made in 100% DMSO (VWR Chemicals 23500.297) in a polypropylene plate in 3-fold dilution steps to give a final concentration range in the assay from 25 μM to 1.7 nM. 1 μL compound dilutions (100% DMSO) were added to 19 μL MAGL (recombinant wild-type) in assay buffer (50 mM TRIS (GIBCO, 15567-027), 1 mM EDTA (Fluka, 03690-100 ml)). The plate was shaked for 1 min at 2000 rpm (Variomag Teleshake) and then incubated for 15 min at RT. To start the reaction, 20 μL 4-Nitrophenlyacetate (Sigma N-8130) in assay buffer with 6% EtOH was added. The final concentrations in the assay were 1 nM MAGL and 300 μM 4-Nitrophenylacetate. After shaking (1 min, 2000 rpm) and 5 min incubation at RT, the absorbance at 405 nm was measured for a first time (Molecular Devices, SpectraMax Paradigm). A second measurement was then done after incubation for 80 min at RT. From the two measurements, the slope was calculated by substracting the first from the second measurement.

| Compound | IC50 [nM] |
| --- | --- |
| COc1ccc([C@H](c2ccccc2)C2CCN(C(=O)c3ccc4c(c3)NC(=O)CO4)CC2)cc1OC (single isomer, unassigned) [Example 8] | 4 |
| COc1ccc([C@H](c2ccccc2)C2CCN(C(=O)c3ccc4c(c3)NC(=O)CO4)CC2)cc1 (single isomer, unassigned) [Example 10] | 1.9 |
| COc1cccc([C@H](c2ccccc2)C2CCN(C(=O)c3ccc4c(c3)NC(=O)CO4)CC2)c1 (single isomer, unassigned) [Example 12] | 0.4 |
| COc1cccc([C@@H](c2ccccc2)C2CCN(C(=O)c3ccc4c(c3)NC(=O)CO4)CC2)c1 (single isomer, unassigned) [Example 13] | 0.5 |
| Cc1ccc([C@H](c2ccccc2)C2CCN(C(=O)c3ccc4c(c3)NC(=O)CO4)CC2)cc1 (single isomer, unassigned) [Example 14] | 0.5 |
| Cc1ccc([C@@H](c2ccccc2)C2CCN(C(=O)c3ccc4c(c3)NC(=O)CO4)CC2)cc1 (single isomer, unassigned) [Example 15] | 1.1 |
| O=C1COc2ccc(C(=O)N3CCC(C(c4ccccc4)c4cccc(F)n4)CC3)cc2N1 (single isomer, unassigned) [Example 99, 6-[4-[(R or S)-(6-fluoro-2-pyridyl)-phenyl-methyl]piperidine-1-carbonyl]-4H-1,4-benzoxazin-3-one] | 2.6 |
| O=C1COc2ccc(C(=O)N3CCC(C(c4ccccc4)c4ccc(F)nc4)CC3)cc2N1 (single isomer, unassigned) [Example 103, 6-[4-[(R or S)-(6-Fluoro-3-pyridyl)-phenyl-methyl]piperidine-1-carbonyl]-4H-1,4-benzoxazin-3-one] | 2.2 |
| COc1ccc(C(c2ccc(F)cc2)C2CCN(C(=O)c3ccc4c(c3)NC(=O)CO4)CC2)cc1OC (single isomer, unassigned) [Example 104, 6-[4-[(S or R)-(3,4-Dimethoxyphenyl)-(4-fluorophenyl)methyl]piperidine-1-carbonyl]-4H-1,4-benzoxazin-3-one] | 0.3 |
| COc1ccc(C(c2ccc(F)cc2)C2CCN(C(=O)c3ccc4c(c3)NC(=O)CO4)CC2)cc1OC (single isomer, unassigned) [Example 105, 6-[4-[(R or S)-(3,4-Dimethoxyphenyl)-(4-fluorophenyl)methyl]piperidine-1-carbonyl]-4H-1,4-benzoxazin-3-one] | 0.8 |
| O=C1COc2ccc(C(=O)N3CCC(C(c4ccc(F)cc4)c4ccc(F)nc4)CC3)cc2N1 (single isomer, unassigned) [Example 114, 6-[4-[(S or R)-(4-Fluorophenyl)-(6-fluoro-3-pyridyl)methyl]piperidine-1-carbonyl]-4H-1,4-benzoxazin-3-one] | 4 |
| O=C1COc2ccc(C(=O)N3CCC(C(c4ccc(F)cc4)c4ccc(F)nc4)CC3)cc2N1 (single isomer, unassigned) [Example 115, 6-[4-[(R or S)-(4-Fluorophenyl)-(6-fluoro-3-pyridyl)methyl]piperidine-1-carbonyl]-4H-1,4-benzoxazin-3-one] | 1.4 |
| COc1ccc(C(c2ccccn2)C2CCN(C(=O)c3ccc4c(c3)NC(=O)CO4)CC2)cc1OC (single isomer, unassigned) [Example 116, 6-[4-[(R or S)-(3,4-Dimethoxyphenyl)-(2-pyridyl)methyl]piperidine-1-carbonyl]-4H-1,4-benzoxazin-3-one] | 55.4 |

The remaining compounds from weak to strong by IC50, led by results:

| IC50 [nM] | Compound |
| --- | --- |
| 9.6 | O=C1COc2ccc(C(=O)N3CCC(C(c4ccc(F)cc4)c4ccc(OCCOCCF)cc4)CC3)cc2N1 (single isomer, unassigned) [Example 108, 6-[4-[(S or R)-[4-[2-(2-Fluoroethoxy)ethoxy]phenyl]-(4-fluorophenyl)methyl]piperidine-1-carbonyl]-4H-1,4-benzoxazin-3-one] |
| 7.4 | O=C1COc2ccc(C(=O)N3CCC(C(c4ccccc4)c4ccc(OCCOCCF)cc4)CC3)cc2N1 (single isomer, unassigned) [Example 97, 6-[4-[(R or S)-[4-[2-(2-Fluoroethoxy)ethoxy]phenyl]-phenyl-methyl]piperidine-1-carbonyl]-4H-1,4-benzoxazin-3-one] |
| 6.2 | O=C1COc2ccc(C(=O)N3CCC(C(c4ccc(F)cc4)c4ccnc(F)c4)CC3)cc2N1 (single isomer, unassigned) [Example 110, 6-[4-[(S or R)-(4-Fluorophenyl)-(2-fluoro-4-pyridyl)methyl]piperidine-1-carbonyl]-4H-1,4-benzoxazin-3-one] |
| 3.5 | O=C1COc2ccc(C(=O)N3CCC(C(c4ccccc4)c4ccc(F)nc4)CC3)cc2N1 (single isomer, unassigned) [Example 102, 6-[4-[(S or R)-(6-Fluoro-3-pyridyl)-phenyl-methyl]piperidine-1-carbonyl]-4H-1,4-benzoxazin-3-one] |
| 1.8 | O=C1COc2ccc(C(=O)N3CCC(C(c4ccccc4)c4cccc(F)n4)CC3)cc2N1 (single isomer, unassigned) [Example 98, 6-[4-[(S or R)-(6-Fluoro-2-pyridyl)-phenyl-methyl]piperidine-1-carbonyl]-4H-1,4-benzoxazin-3-one] |
| 1.5 | O=C1COc2ccc(C(=O)N3CCC(C(c4ccc(F)cc4)c4ccnc(F)c4)CC3)cc2N1 (single isomer, unassigned) [Example 111, 6-[4-[(R or S)-(4-Fluorophenyl)-(2-fluoro-4-pyridyl)methyl]piperidine-1-carbonyl]-4H-1,4-benzoxazin-3-one] |
| 1.4 | O=C1COc2ccc(C(=O)N3CCC([C@@H](c4ccc(F)cc4)c4cccc(OCCOCCF)c4)CC3)cc2N1 (single isomer, unassigned) [Example 95, 6-[4-[(R or S)-[3-[2-(2-fluoroethoxy)ethoxy]phenyl]-(4-fluorophenyl)methyl]piperidine-1-carbonyl]-4H-1,4-benzoxazin-3-one] |
| 0.9 | O=C1COc2ccc(C(=O)N3CCC([C@@H](c4ccccc4)c4ccc(F)cc4)CC3)cc2N1 (single isomer, unassigned) [Example 6] |
| 0.9 | O=C1COc2ccc(C(=O)N3CCC([C@H](c4ccccc4)c4ccc(F)cc4)CC3)cc2N1 (single isomer, unassigned) [Example 7] |
| 0.6 | COc1ccc([C@@H](c2ccccc2)C2CCN(C(=O)c3ccc4c(c3)NC(=O)CO4)CC2)cc1 (single isomer, unassigned) [Example 11] |
| 0.5 | Cc1cccc([C@H](c2ccccc2)C2CCN(C(=O)c3ccc4c(c3)NC(=O)CO4)CC2)c1 (single isomer, unassigned) [Example 16] |
| 0.4 | O=C1COc2ccc(C(=O)N3CCC(C(c4ccc(F)cc4)c4cccc(OCCOCCF)c4)CC3)cc2N1 (single isomer, unassigned) [Example 94, 6-[4-[(S or R)-[3-[2-(2-Fluoroethoxy)ethoxy]phenyl]-(4-fluorophenyl)methyl]piperidine-1-carbonyl]-4H-1,4-benzoxazin-3-one] |
| 0.4 | Cc1ccc(C(c2ccc(F)cc2)C2CCN(C(=O)c3ccc4c(c3)NC(=O)CO4)CC2)cc1 (single isomer, unassigned) [Example 113, 6-[4-[(R or S)-(4-Fluorophenyl)-(p-tolyl)methyl]piperidine-1-carbonyl]-4H-1,4-benzoxazin-3-one] |
| 0.3 | COc1ccc([C@@H](c2ccccc2)C2CCN(C(=O)c3ccc4c(c3)NC(=O)CO4)CC2)cc1OC (single isomer, unassigned) [Example 9] |
| 0.3 | Cc1ccc(C(c2ccc(F)cc2)C2CCN(C(=O)c3ccc4c(c3)NC(=O)CO4)CC2)cc1 (single isomer, unassigned) [Example 112, 6-[4-[(S or R)-(4-Fluorophenyl)-(p-tolyl)methyl]piperidine-1-carbonyl]-4H-1,4-benzoxazin-3-one] |
| 0.2 | Cc1cccc([C@@H](c2ccccc2)C2CCN(C(=O)c3ccc4c(c3)NC(=O)CO4)CC2)c1 (single isomer, unassigned) [Example 17] |
| 0.2 | O=C1COc2ccc(C(=O)N3CCC(C(c4ccccc4)c4ccc(OCCOCCF)cc4)CC3)cc2N1 (single isomer, unassigned) [Example 96, 6-[4-[(S or R)-[4-[2-(2-Fluoroethoxy)ethoxy]phenyl]-phenyl-methyl]piperidine-1-carbonyl]-4H-1,4-benzoxazin-3-one] |
| 0.2 | O=C1COc2ccc(C(=O)N3CCC(C(c4ccc(F)cc4)c4ccc(OCCOCCF)cc4)CC3)cc2N1 (single isomer, unassigned) [Example 107, 6-[4-[(R or S)-[4-[2-(2-Fluoroethoxy)ethoxy]phenyl]-(4-fluorophenyl)methyl]piperidine-1-carbonyl]-4H-1,4-benzoxazin-3-one] |
